Data reported in patent publication US20230416199A1, “INHIBITORS OF AMINO ACID TRANSPORT” (ICAHN SCHOOL OF MEDICINE AT MOUNT SINAI, priority 2020, published 2023).
Read-outs that look alike come from different tables or passages of the source.

Experiments:
Format in all cases: cell-based
hASCT1 = molecular target: T1, hASCT1 (Homo sapiens, UniProt P43007); experiment: Electrophysiology (whole-cell current recording) of transfected HEK293 cells, hASCT1
T1 construct: expressed in transfected cells; host or cells: HEK293 (ATCC CRL-11268), transient transfection
T1 sequence (P43007 1-532): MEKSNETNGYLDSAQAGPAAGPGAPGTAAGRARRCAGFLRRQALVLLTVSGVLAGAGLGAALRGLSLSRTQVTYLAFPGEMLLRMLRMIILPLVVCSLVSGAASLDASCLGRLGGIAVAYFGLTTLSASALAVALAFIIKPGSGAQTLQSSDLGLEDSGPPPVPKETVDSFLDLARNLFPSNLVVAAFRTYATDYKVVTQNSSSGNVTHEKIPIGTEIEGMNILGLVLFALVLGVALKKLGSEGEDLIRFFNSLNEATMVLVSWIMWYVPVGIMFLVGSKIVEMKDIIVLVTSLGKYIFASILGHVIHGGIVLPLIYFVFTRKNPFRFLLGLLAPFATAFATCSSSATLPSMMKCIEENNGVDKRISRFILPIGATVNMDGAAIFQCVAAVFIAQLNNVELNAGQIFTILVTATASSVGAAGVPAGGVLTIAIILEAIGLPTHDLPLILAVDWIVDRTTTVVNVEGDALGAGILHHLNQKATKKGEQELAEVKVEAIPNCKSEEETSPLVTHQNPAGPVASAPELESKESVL
Experimental: (§1) Human embryonic kidney 293 (HEK293, ATCC CRL-11268) cells were cultured in DMEM media supplemented with 10% (v v) fetal bovine serum (FBS), 2 mM glutamine, 1% penicillin streptomycin solution, 1 mM sodium pyruvate and non-essential amino acids. Cells were maintained at 37° C. in a fully humidified atmosphere containing 5% CO2. rASCT2, hASCT2, hASCT1, EAAT1, EAAT2, EAAC1, EAAT5 and YFP complementary DNAs were each used to transiently transfect HEK293 using POLYPLUS Jet-prime transfection reagent. Cells were analyzed using electrophysiological techniques 24-40 hours after transfection.
(§2) Stock solutions of inhibitor was prepared in dimethyl sulfoxide (DMSO) up to 100 mM. Dilutions to working concentrations were made using external buffer. […] For rASCT2, hASCT2 and hASCT1, external buffer contained 140 mM NaCl, 2 mM MgCl2, 2 mM CaCl2), and 10 mM HEPES, pH 7.40 while internal pipette solution comprised of 130 mM NaSCN, 2 mM MgCl2, 10 mM EGTA, 10 mM HEPES and 10 mM alanine, pH 7.40. For specificity experiments with EAAT1, EAAT2, EAAC1 and EAAT5, internal solution contained 10 mM glutamate instead of alanine. Compounds were applied to HEK293 cells expressing DNA of interest suspended from a current recording electrode in whole cell configuration through a rapid solution exchange device. Cells are immersed in external buffer bath used to dissolve the inhibitors. The open pipette resistance was between 3 and 6 MΩ. Series resistance was not compensated in these experiments due to relatively small currents. Currents traces were recorded using an Adams and List EPC7 amplifier and digitized using a Molecular Devices Digidata A/D converter.
(§3) Linear and nonlinear curve fitting of the experimental data were analyzed using MicroCal Origin software. Nonlinear dose-response relationships were fitted with a Michaelis-Menten-like equation to obtain apparent Ki values in the absence of substrate (see TABLE 2 for Ki values). The figures show representative current traces and dose-response curves for hACST2 and rASCT2, used to obtain Ki values in TABLE 2 for compound SN 40. At least four experiments were performed with at least three different cells. Error bars in all graphs, e.g., in FIG. 1B and FIG. 1C and tables (Ki values) represent mean±SD.

rASCT2 = molecular target: T2, rASCT2 (Rattus norvegicus, UniProt D3ZJ25); experiment: Electrophysiology (whole-cell current recording) of transfected HEK293 cells, rASCT2
T2 construct: expressed in transfected cells; host or cells: HEK293 (ATCC CRL-11268), transient transfection
T2 sequence (D3ZJ25 1-555): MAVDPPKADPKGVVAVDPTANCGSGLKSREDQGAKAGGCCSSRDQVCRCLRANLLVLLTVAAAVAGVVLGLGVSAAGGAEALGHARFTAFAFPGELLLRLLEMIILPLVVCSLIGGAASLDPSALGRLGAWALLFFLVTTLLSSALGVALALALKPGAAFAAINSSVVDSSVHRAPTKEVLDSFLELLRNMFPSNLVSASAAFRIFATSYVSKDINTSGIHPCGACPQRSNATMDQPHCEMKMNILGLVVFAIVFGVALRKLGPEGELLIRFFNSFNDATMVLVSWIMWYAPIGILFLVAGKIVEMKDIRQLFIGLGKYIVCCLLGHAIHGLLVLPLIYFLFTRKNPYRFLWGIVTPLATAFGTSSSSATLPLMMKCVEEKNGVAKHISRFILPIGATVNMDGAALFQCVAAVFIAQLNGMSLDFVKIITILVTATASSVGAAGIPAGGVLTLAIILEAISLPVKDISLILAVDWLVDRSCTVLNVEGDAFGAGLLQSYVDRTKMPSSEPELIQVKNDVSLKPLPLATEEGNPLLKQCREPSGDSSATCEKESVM
Experimental: as §1, §2, §3

hASCT2 [1] = molecular target: T3, hASCT2 (Homo sapiens, UniProt Q15758); experiment: Electrophysiology (whole-cell current recording) of transfected HEK293 cells, hASCT2
T3 construct: expressed in transfected cells; host or cells: HEK293 (ATCC CRL-11268), transient transfection
T3 sequence (Q15758 1-541): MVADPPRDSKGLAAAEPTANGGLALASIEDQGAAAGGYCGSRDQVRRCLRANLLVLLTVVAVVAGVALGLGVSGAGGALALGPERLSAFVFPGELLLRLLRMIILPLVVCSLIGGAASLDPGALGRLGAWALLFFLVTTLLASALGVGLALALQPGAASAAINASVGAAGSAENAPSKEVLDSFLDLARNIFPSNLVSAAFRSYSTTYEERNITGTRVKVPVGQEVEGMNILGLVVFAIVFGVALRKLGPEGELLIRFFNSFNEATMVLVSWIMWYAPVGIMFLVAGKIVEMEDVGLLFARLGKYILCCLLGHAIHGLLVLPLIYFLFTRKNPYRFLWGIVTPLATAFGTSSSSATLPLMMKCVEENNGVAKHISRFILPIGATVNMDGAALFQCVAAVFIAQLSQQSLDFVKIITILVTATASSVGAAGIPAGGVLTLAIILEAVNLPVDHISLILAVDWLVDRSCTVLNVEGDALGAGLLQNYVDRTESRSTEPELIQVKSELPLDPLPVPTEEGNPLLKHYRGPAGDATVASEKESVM
Experimental: as §1, §2, §3

hASCT2 [2] = molecular target: T3, hASCT2; experiment: Competition experiment with alanine, hASCT2; conditions: 1 mM ala, first entry of the cell
EAAT1 = molecular target: T4, EAAT1 (Homo sapiens, UniProt P43003); experiment: Electrophysiology specificity experiment in transfected HEK293 cells, EAAT1; conditions: apparent Ki, HEK293, internal solution 10 mM glutamate, mean ± SD
T4 construct: expressed in transfected cells; host or cells: HEK293 (ATCC CRL-11268), transient transfection
Experimental: as §1, §2, §3

[3] = apparent Ki in the absence of substrate, HEK293, mean ± SD, read-out: Ki hASCT1
[4] = apparent Ki in the absence of substrate, HEK293, mean ± SD, read-out: Ki rASCT2
[5] = apparent Ki in the absence of substrate, HEK293, mean ± SD, read-out: Ki hASCT2
[6] = Table 3, dihydroxyproline derivatives, read-out: Ki All DNA: hASCT1
[7] = Table 3, dihydroxyproline derivatives, read-out: Ki All DNA: rASCT2
[8] = Table 3, dihydroxyproline derivatives, read-out: Ki All DNA: hASCT2

T4 sequence (P43003 whole entry, species assumed): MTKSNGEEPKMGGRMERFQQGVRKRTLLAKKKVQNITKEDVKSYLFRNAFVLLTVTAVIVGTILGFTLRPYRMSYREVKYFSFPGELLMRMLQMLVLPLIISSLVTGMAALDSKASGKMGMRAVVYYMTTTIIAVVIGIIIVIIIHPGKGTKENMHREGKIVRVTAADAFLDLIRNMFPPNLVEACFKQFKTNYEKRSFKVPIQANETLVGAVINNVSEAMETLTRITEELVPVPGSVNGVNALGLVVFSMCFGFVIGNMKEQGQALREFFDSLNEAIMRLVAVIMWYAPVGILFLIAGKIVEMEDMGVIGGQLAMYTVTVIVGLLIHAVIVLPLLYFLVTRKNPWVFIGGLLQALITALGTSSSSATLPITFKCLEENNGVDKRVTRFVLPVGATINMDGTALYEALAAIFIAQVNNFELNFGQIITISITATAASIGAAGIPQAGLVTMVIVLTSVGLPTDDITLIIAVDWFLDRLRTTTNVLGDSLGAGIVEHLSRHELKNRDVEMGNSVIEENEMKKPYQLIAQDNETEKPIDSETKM

| Ki (hASCT1; [3]) [µM] | Ki (rASCT2; [4]) [nM] | Ki (hASCT2 [1]; [5]) [nM] | Structure (SMILES) | other results |
| --- | --- | --- | --- | --- |
| > 100 | 8170 ± 1100 | – | O=C(O[C@@H]1CN[C@H](C(=O)O)C1)c1ccc(OCc2ccccc2)cc1 [SN 21] | – |
| 20 ± 2.3 | 27200 ± 1900 | 33600 ± 2500 | O=C(Nc1ccc(CN[C@@H]2CN[C@H](C(=O)O)C2)cc1)c1ccccc1 [SN 43] | – |
| 5.71 ± 0.9 | 3680 ± 700 | 4170 ± 500 | O=C(O[C@@H]1CN[C@H](C(=O)O)C1)c1ccc(Oc2ccccc2)cc1 [SN 20] | – |
| – | – | 1150 ± 900 | O=C(O)[C@@H]1C[C@H](NCc2ccc(-c3ccc(C(F)(F)F)cc3)cc2)CN1 [SN 41] | – |
| – | 19700 ± 3100 | – | N[C@@H](COC(=O)c1ccc(-c2cccc(F)c2)cc1F)C(=O)O [SN 24] | – |
| – | – | – | O=C(O[C@]1(CO)CN[C@H](C(=O)O)C1)c1ccc(Oc2ccccc2)cc1 [SN76] | Ki (hASCT1; [6]): 12.2 µM; Ki (rASCT2; [7]): 20000 nM; Ki (hASCT2 [1]; [8]): 31900 nM |
| – | – | – | O=C(OC[C@@]1(O)CN[C@H](C(=O)O)C1)c1ccc(C(O)c2ccccc2)cc1 (some centres unmarked) [SN63] | Ki (hASCT1; [6]): 93 µM; Ki (rASCT2; [7]): 232000 nM; Ki (hASCT2 [1]; [8]): 405000 nM |
| – | – | – | O=C(OC[C@@]1(O)CN[C@H](C(=O)O)C1)c1ccc(-c2ccccc2)cc1 [SN57] | Ki (hASCT1; [6]): 6.61 µM; Ki (rASCT2; [7]): 3870 nM; Ki (hASCT2 [1]; [8]): 4550 nM; Competition Expt % block (given as a decimal): hASCT2 (hASCT2 [2]): full; Ki (hASCT2 [2]; read-out: Competition Expt (h/rASCT2 Ki): hASCT2 Ki): 40 µM |
| – | 5170 ± 1200 | – | N[C@@H](COC(=O)c1ccc(C(O)c2ccccc2)cc1)C(=O)O (some centres unmarked) [SN 27] | – |
| – | 3510 ± 600 | 3500 ± 600 | N[C@@H](CCOC(=O)c1ccc(-c2ccccc2)cc1)C(=O)O [SN 33] | – |
| – | 380 ± 170 | – | N[C@@H](COCc1ccc(-c2ccccc2)cc1)C(=O)O [SN 38] | – |
| – | 6020 ± 1800 | 6380 ± 1200 | N[C@H](C(=O)O)[C@H](CO)OC(=O)c1ccc(-c2ccccc2)cc1 [SN 36] | – |
| – | 4580 ± 1100 | – | O=C(Nc1ccc(C(=O)O[C@@H]2CN[C@H](C(=O)O)C2)cc1)c1ccccc1 [SN 14] | – |
| – | – | – | O=C(O[C@]1(CO)CN[C@H](C(=O)O)C1)c1ccc(-c2ccc(C(F)(F)F)cc2)cc1 [SN75] | Ki (hASCT1; [6]): 1.17 µM; Ki (rASCT2; [7]): 3310 nM; Ki (hASCT2 [1]; [8]): 8070 nM |
| 7.01 ± 2.1 | 2790 ± 700 | 3010 ± 500 | O=C(O[C@@H]1CN[C@H](C(=O)O)C1)c1ccc(-c2ccccn2)cc1 [SN 18] | Ki (EAAT1): 12.4 ± 1 µM |
| 9.97 ± 0.5 | – | – | O=C(Nc1cccc(C(=O)O[C@@H]2CN[C@H](C(=O)O)C2)c1)c1ccc(C(F)(F)F)cc1 [SN 17] | Ki (rASCT2; apparent Ki in the absence of substrate, HEK293, nM, read-out: Ki rASCT2): < 100 nM; Ki (hASCT2 [1]; apparent Ki in the absence of substrate, HEK293, nM, read-out: Ki hASCT2): < 100 nM |
